Results taken from patent US11702422B2, “Imidazopyridazines as modulators of IL-17” (Janssen Pharmaceutica NV, priority 2020, dated 2023).

Tests used:
[1] = test system: IL-17A-induced G-CSF production in human normal keratinocyte (NHK); test: NHK Assay: IL-17A-induced G-CSF production in human normal keratinocytes; type: cell-based; conditions: 24 h, adult normal human keratinocytes, IL-17A 5 ng/mL, simple average if tested more than once
Method: IL-17A acts directly on keratinocytes through binding to dimeric receptor IL-17RA/RC and drives the production of a number of inflammatory mediators known to be elevated in psoriasis lesional tissue. IL-17A small molecule inhibitors that block the IL-17A to interact with IL-17R would inhibit the IL-17A signaling in its targeted cells such as keratinocytes. The compound functional activity is evaluated for its impact on IL-17A-induced G-CSF production in human normal keratinocyte (NHK).
Adult normal human keratinocytes are cultured in keratinocyte growth medium (Lonza) in a flask till reaching ˜ 90% confluence, then cells are transferred to a 384-well plate at density of 3000-4000 cell/well. Recombinant human IL-17A (Gibco PHC9174) is pre-incubated with titrated compound or DMSO for 1 h at rt then added to the cell culture plate. The final concentration of IL-17A is 5 ng/mL and DMSO is 0.2%, in the culture containing 5% FBS. Cells are cultured/treated for 24 h at 37° C. Supernatants are collected and G-CSF production is measured through HTRF technology using Human G-CSF Kit (CisBio). G-CSF concentration was extrapolated from the standard curve and IC50 is determined using GraphPad Prism. Cell viability is also evaluated using CellTiter-Glo kit (Promega) and effect of compound on cell viability is compared to DMSO control.

[2] = target: IL-17A(FLAG-Tagged): IL-17RA(His-Tagged) (Homo sapiens, UniProt Q16552, K93Q); test: IL-17A(FLAG-Tagged): IL-17RA(His-Tagged) Binding Disruption Eu-HTRF Assay; conditions: IL-17A/IL-17RA binding disruption, simple average if tested more than once
Text: IL-17A(FLAG-Tagged): IL-17RA(His-Tagged) Binding Disruption Eu-HTRF Assay
An antibody directed against the FLAG tag of IL-17A (SEQ ID NO:1) is labeled with the HTRF donor chromophore (Europium-cryptate). IL-17A is present as a dimer that is “locked into” this quaternary structure due to the formation of loop-spanning […] disulfide bridges. The construct of IL-17RA used in the assay excludes the […] portion of the receptor and is fused to a C-terminal 10×His tag (SEQ ID NO:2). An antibody directed against the His tag of the IL-17RA chimera is labeled with the HTRF acceptor chromophore (“D2”). The fluorescence-resonance energy transfer (FRET) depends on the vicinity of the donor chromophore to the acceptor, and interruption of the binding between the IL-17A and IL-17RA causes the reduction/loss of FRET. Therefore, this assay allows to evaluate the compound effect on the binding IL-17A and IL-17RA by monitoring the fluorescence intensity of donor vs acceptor. The assay is run as described below.
40 nl of 2-fold serial diluted compound solution for total 22 dilution points is added into each well of a 1536-well, white, low-volume, non-binding plate (Greiner #782904), then 2 μl of FLAG tagged IL-17A at 2× final concentration (2.5 nM) in solution of PBS+0.01% Triton-X100 is added to each well. The assay plate is briefly centrifuged then incubated for 1 h at rt. A mixed solution is prepared containing 2×5 nM 10HIS×IL-17RA, 2×2.5 nM Eu-anti-FLAG (CISBIO), 2×5 nM D2-anti-HIS (CISBIO) in PBS+0.01% Triton-X100+200 mM Potassium Fluoride (Sigma 60238) and 2 μl of mix is added to each well of the assay plate. The plate is briefly centrifuged then incubated for 2 h at rt. The HTRF intensities at the wavelength of donor (620 nm) and acceptor (665 nm) are measured using BMG Pherastar. The ratio between intensities at two wavelengths is calculated and plotted against the compound concentration and the data is fitted to a one-site competition model to yield IC50 of the compound.

UniProt Q16552, sequence (Q16552 with tags, fused parts or gaps K93Q): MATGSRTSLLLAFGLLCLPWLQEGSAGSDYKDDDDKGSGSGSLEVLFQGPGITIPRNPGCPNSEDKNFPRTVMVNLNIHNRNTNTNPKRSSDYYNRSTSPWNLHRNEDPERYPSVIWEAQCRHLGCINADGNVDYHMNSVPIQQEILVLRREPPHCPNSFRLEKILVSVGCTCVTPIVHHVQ

IC50 [2] | SMILES | IC50 ([1]; Homo sapiens, Keratinocyte) | IC50 [1]
930 nM | Cc1nonc1C(=O)N[C@H](c1cn2ncc([C@H](NC(=O)C(C)CC(F)F)C3CC3)cc2n1)C1CCC(F)(F)CC1 (single isomer, unassigned) [Example 329, N—((S)-(7-((R)-Cyclopropyl((S*)-4,4-difluoro-2-methylbutanamido)methyl)imidazo[1,2-b]pyridazin-2-yl)(4,4-difluorocyclohexyl)methyl)-4-methyl-1,2,5-oxadiazole-3-carboxamide] | 2200 nM | –
110 nM | COc1cc(C(=O)N[C@H](c2cn3ncc([C@H](NC(=O)CCC(F)(F)F)C4CC4)cc3n2)C2CCC(F)(F)CC2)ccn1 [Example 184, N—((S)-(7-((R)-Cyclopropyl(4,4,4-trifluorobutanamido)methyl)imidazo[1,2-b]pyridazin-2-yl)(4,4-difluorocyclohexyl)methyl)-2-methoxyisonicotinamide] | 590 nM | –
– | CC(C)n1nccc1C(=O)N[C@H](c1cn2ncc(C(CC3CCC3)NC(=O)CC3CC(F)(F)C3)cc2n1)C1CCC(F)(F)CC1 (single isomer, unassigned) [Example 441, N—((S)-(7-((S*)-2-Cyclobutyl-1-(2-(3,3-difluorocyclobutyl)acetamido)ethyl)imidazo[1,2-b]pyridazin-2-yl)(4,4-difluorocyclohexyl)methyl)-1-isopropyl-1H-pyrazole-5-carboxamide] | – | 1100 nM
7600 nM | O=C(CCC(F)(F)F)NC(c1cnn2cc([C@@H](NC(=O)c3ccccc3)C3CCC(F)(F)CC3)nc2c1)C1CC1 (single isomer, unassigned) [Example 13, N—((S)-(7-((S*)-Cyclopropyl(4,4,4-trifluorobutanamido)methyl)imidazo[1,2-b]pyridazin-2-yl)(4,4-difluorocyclohexyl)methyl)benzamide] | – | –
19000 nM | Cc1nonc1C(=O)N[C@H](c1cn2ncc([C@H](NC(=O)[C@H]3CNC[C@@H]3C(F)(F)F)C3CC3)cc2n1)C1CCC(F)(F)CC1 (relative stereo) [Example 355, N—((S)-(7-((R)-Cyclopropyl((trans-3R*,4R*)-4-(trifluoromethyl)pyrrolidine-3-carboxamido)methyl)imidazo[1,2-b]pyridazin-2-yl)(4,4-difluorocyclohexyl)methyl)-4-methyl-1,2,5-oxadiazole-3-carboxamide] | – | –
– | CC(C)c1ncsc1C(=O)N[C@H](c1cn2ncc([C@H](NC(=O)CCC(F)(F)F)C3CC3)cc2n1)C1CCC(F)(F)CC1 [Example 464, N—((S)-(7-((R)-Cyclopropyl(4,4,4-trifluorobutanamido)methyl)imidazo[1,2-b]pyridazin-2-yl)(4,4-difluorocyclohexyl)methyl)-4-isopropylthiazole-5-carboxamide] | 630 nM | –
– | O=C(CCC(F)(F)F)N[C@@H](c1cnn2cc([C@@H](NC(=O)c3nonc3CN3CC(F)(F)C3)C3CCC(F)(F)CC3)nc2c1)C1CC1 [Example 387, N—((S)-(7-((R)-Cyclopropyl(4,4,4-trifluorobutanamido)methyl)imidazo[1,2-b]pyridazin-2-yl)(4,4-difluorocyclohexyl)methyl)-4-((3,3-difluoroazetidin-1-yl)methyl)-1,2,5-oxadiazole-3-carboxamide] | 72 nM | –
– | Cc1nonc1C(=O)N[C@H](c1cn2ncc(C(NC(=O)CC3CC(F)(F)C3)C(C)(C)O)cc2n1)C1CCC(F)(F)CC1 (single isomer, unassigned) [Example 443, N—((S)-(7-((S*)-1-(2-(3,3-Difluorocyclobutyl)acetamido)-2-hydroxy-2-methylpropyl)imidazo[1,2-b]pyridazin-2-yl)(4,4-difluorocyclohexyl)methyl)-4-methyl-1,2,5-oxadiazole-3-carboxamide] | – | 520 nM
– | CC(C)c1nnsc1C(=O)N[C@H](c1cn2ncc([C@H](NC(=O)CCC(F)(F)F)C3CC3)cc2n1)C1CCC(F)(F)CC1 [Example 481, N—[(S)-[7-[(R)-Cyclopropyl-(4,4,4-trifluorobutanamido)methyl]imidazo[1,2-b]pyridazin-2-yl]-(4,4-difluorocyclohexyl)methyl]-4-isopropyl-thiadiazole-5-carboxamide] | 470 nM | –
– | CC(C)n1nccc1C(=O)N[C@H](c1cn2ncc(C(NC(=O)CC3CC(F)(F)C3)C(C)(C)O)cc2n1)C1CCC(F)(F)CC1 (single isomer, unassigned) [Example 442, N—((S)-(7-((S*)-1-(2-(3,3-Difluorocyclobutyl)acetamido)-2-hydroxy-2-methylpropyl)imidazo[1,2-b]pyridazin-2-yl)(4,4-difluorocyclohexyl)methyl)-1-isopropyl-1H-pyrazole-5-carboxamide] | – | 600 nM
– | CC(C)c1oncc1C(=O)N[C@H](c1cn2ncc([C@H](NC(=O)CCC(F)(F)F)C3CC3)cc2n1)C1CCC(F)(F)CC1 [Example 482, N—[(S)-[7-[(R)-Cyclopropyl-(4,4,4-trifluorobutanamido)methyl]imidazo[1,2-b]pyridazin-2-yl]-(4,4-difluorocyclohexyl)methyl]-5-isopropyl-isoxazole-4-carboxamide] | – | 76 nM
– | CC(C)n1nccc1C(=O)N[C@H](c1cn2ncc(C(NC(=O)CC3CC(F)(F)C3)C(F)F)cc2n1)C1CCC(F)(F)CC1 (single isomer, unassigned) [Example 420, N—((S)-(7-((R*)-1-(2-(3,3-Difluorocyclobutyl)acetamido)-2,2-difluoroethyl)imidazo[1,2-b]pyridazin-2-yl)(4,4-difluorocyclohexyl)methyl)-1-isopropyl-1H-pyrazole-5-carboxamide] | – | 4100 nM
– | CC(C)(C)Oc1nonc1C(=O)N[C@H](c1cn2ncc([C@H](NC(=O)CC3CC(F)(F)C3)C3CC3)cc2n1)C1CCC(F)(F)CC1 [Example 392, 4-(tert-Butoxy)-N—((S)-(7-((R)-cyclopropyl(2-(3,3-difluorocyclobutyl)acetamido)methyl)imidazo[1,2-b]pyridazin-2-yl)(4,4-difluorocyclohexyl)methyl)-1,2,5-oxadiazole-3-carboxamide] | 37 nM | –
– | O=C(CC1CC(F)(F)C1)NC(c1cnn2cc([C@@H](NC(=O)c3nonc3C3CC3)C3CCC(F)(F)CC3)nc2c1)C(F)F (single isomer, unassigned) [Example 518, 4-Cyclopropyl-N—((S)-(7-((R*)-1-(2-(3,3-difluorocyclobutyl)acetamido)-2,2-difluoroethyl)imidazo[1,2-b]pyridazin-2-yl)(4,4-difluorocyclohexyl)methyl)-1,2,5-oxadiazole-3-carboxamide] | – | 2900 nM
2600 nM | Cc1nonc1C(=O)N[C@H](c1cn2ncc([C@H](NC(=O)CCCC#N)C3CC3)cc2n1)C1CCC(F)(F)CC1 [Example 351, N—((S)-(7-((R)-(4-Cyanobutanamido)(cyclopropyl)methyl)imidazo[1,2-b]pyridazin-2-yl)(4,4-difluorocyclohexyl)methyl)-4-methyl-1,2,5-oxadiazole-3-carboxamide] | – | –
– | Cc1nonc1C(=O)N[C@H](c1cn2ncc(C(NC(=O)CCC(F)(F)F)C(F)F)cc2n1)C1CCC(F)(F)CC1 (single isomer, unassigned) [Example 515, N—((S)-(7-((S*)-2,2-Difluoro-1-(4,4,4-trifluorobutanamido)ethyl)imidazo[1,2-b]pyridazin-2-yl)(4,4-difluorocyclohexyl)methyl)-4-methyl-1,2,5-oxadiazole-3-carboxamide] | – | 140 nM
